# In patent US20250282844A1, “METHODS FOR CONTROLLING IMMUNE CELL ACTIVITY” (BIOSCEPTRE (AUST) PTY LTD, priority 2021, published 2025):
# Test system: JeKo-1 cells
# Experiment: Co-culture of T cells (unmodified or expressing nfP2X7 CAR) with JeKo-1 cells, with or without blocking peptide
# Format: cell-based
# Conditions: FIG. 3
# Method: More specifically, T cells (either unmodified or expressing nfP2X7 CAR) were cultured with JeKo-1 cells at an ET ratio of 5 to 1. Blocking was performed using peptide variant 2 at 5 μg/mL.
# On day 5 of co-culture the cell counts were measured and evaluated for total JeKo-1 cell count. The total number of JeKo-1 cells added in the experiment was 20,000 on day 1 and day 3 of the experiment (therefore the total amount of added cells was 40,000 JeKo-1 per condition).
# Addition of the blocking peptide variant 2 at 5 ug/mL reversed this such that after 5 days, 40,000 JeKo-1 cells were present in culture.
sequence,measurement,setting,value
DFPGHNYTTRNILPGLNITSTFHKTSGSGKGGGGS (E200_extended peptide 17v12 (35 aa) + linker) [peptide variant 2],total JeKo-1 cell count,"T cells expressing nfP2X7 CAR, ET 5 to 1, peptide at 5 ug/mL, day 5 of co-culture, 40,000 JeKo-1 added in total","40,000 cells"
same,total JeKo-1 cell count,"T cells that do not express nfP2X7 CAR (60,000 cells after 5 days without peptide), effect of adding blocking peptide",not changed
